This is an account of results in patent publication US20070128217A1 (priority 2003, published 2007).

Assay [1] relates to antibodies in sera from SARS patients (sera 1a, 1b, 2, 6, 37, 62, London, SARS-yellow, SARS-green). Type of assay: binding, human. Details: Binding of serum 6 to linear peptides of protein X1 of SARS-CoV Urbani / Binding of serum 37 to linear peptides of protein X1 of SARS-CoV Urbani / Binding of serum 6 to looped/cyclic peptide (PEPSCAN-ELISA) / Binding of serum 37 to looped/cyclic peptide (PEPSCAN-ELISA) / Binding of serum 37 to looped/cyclic peptides of protein X1 of SARS-CoV Urbani / Binding of serum 6 to linear peptides of protein X2 / Binding of serum 37 to linear peptides of protein X2 / Binding of serum 37 to looped/cyclic peptides of protein X2 of SARS-CoV Urbani / Binding of serum 6 to linear peptides of protein M of SARS-CoV Urbani / Binding of serum 37 to linear peptides of protein M of SARS-CoV Urbani / Binding of serum 6 to looped/cyclic peptides of protein M of SARS-CoV Urbani / Binding of serum 37 to looped/cyclic peptides of protein M of SARS-CoV Urbani / Binding of serum 6 to linear peptides of protein X3 of SARS-CoV Urbani / Binding of serum 37 to linear peptides of protein X3 of SARS-CoV Urbani / Binding of serum 37 to looped/cyclic peptides of protein X3 of SARS-CoV Urbani / Binding of serum 6 to linear peptides of protein X4 of SARS-CoV Urbani / Binding of serum 37 to linear peptides of protein X4 of SARS-CoV Urbani / Binding of serum 37 to looped/cyclic peptides of protein X4 of SARS-CoV Urbani / Binding of serum 6 to linear peptides of protein X5 of SARS-CoV Urbani / Binding of serum 37 to linear peptides of protein X5 of SARS-CoV Urbani / Binding of serum 37 to looped/cyclic peptides of protein X5 of SARS-CoV Urbani / Binding of serum 6 to linear peptides of protein N of SARS-CoV Urbani / Binding of serum 37 to linear peptides of protein N of SARS-CoV Urbani / Binding of serum 6 to linear peptide (PEPSCAN-ELISA) / Binding of serum 1a to looped/cyclic peptides of protein N of SARS-CoV Urbani / Binding of serum 1b to looped/cyclic peptides of protein N of SARS-CoV Urbani / Binding of serum 2 to looped/cyclic peptides of protein N of SARS-CoV Urbani / Binding of serum 6 to looped/cyclic peptides of protein N of SARS-CoV Urbani / Binding of serum 37 to looped/cyclic peptides of protein N of SARS-CoV Urbani / Binding of serum 62 to looped/cyclic peptides of protein N of SARS-CoV Urbani / Binding of serum London to looped/cyclic peptides of protein N of SARS-CoV Urbani / Binding of serum SARS-green to looped/cyclic peptides of protein N of SARS-CoV Urbani: unit not given here.

Assay [2] relates to control sera (pooled serum of ten healthy LUMC hospital workers; commercial negative donor pooled serum from the Dutch bloodbank). Type of assay: binding, human. Also on record: Binding of Control serum LUMC to linear peptides / Binding of Control serum Blood-bank to linear peptides / Binding of Control serum LUMC to looped peptides / Binding of Control Serum Blood-Bank to Looped peptides / Binding of Control serum LUMC to linear peptides of the protein M of SARS-CoV Urbani / Binding of Control serum Blood-bank to linear peptides of the protein M of SARS-CoV Urbani / Binding of Control serum LUMC to looped peptides of the protein M of SARS-CoV Urbani / Binding of Control Serum Blood-Bank to Looped peptides of the protein M of SARS-CoV Urbani: unit not given here.

Assay [3] relates to rabbit serum obtained by immunizing a rabbit with the SARS-CoV strain Frankfurt 1. Type of assay: binding. Also on record: Binding of a rabbit serum to linear peptides / Binding of a rabbit serum to looped peptides / Rabbit serum linear peptides / Rabbit serum looped peptides / Binding of a rabbit serum to linear peptides of protein N of SARS-CoV Urbani (Rabbit serum linear peptides) / Binding of a rabbit serum to looped/cyclic peptides of protein N of SARS-CoV Urbani (Rabbit serum looped peptides): unit not given here.

With FLTLIVFTSCELYHY, in assay [1], the “Binding of serum 1a to linear peptides of protein X4 of SARS-CoV Urbani” value was determined as 0.7, the “Binding of serum 1a to looped/cyclic peptides of protein X4 of SARS-CoV Urbani” value is listed as 0.8, the “Binding of serum 1b to linear peptides of protein X4 of SARS-CoV Urbani” value is given as 0.6 and the “Binding of serum 1b to looped/cyclic peptides of protein X4 of SARS-CoV Urbani” value is recorded as 1.7. In assay [1], the “Binding of serum 2 to linear peptides of protein X4 of SARS-CoV Urbani” value is on record as 0.5, the “Binding of serum 2 to looped/cyclic peptides of protein X4 of SARS-CoV Urbani” value was 0.8, the “Binding of serum 6 to linear peptides of protein X4 of SARS-CoV Urbani” value was 0.5 and the “Binding of serum 6 to looped/cyclic peptides of protein X4 of SARS-CoV Urbani” value was 0.5. In assay [1], the “Binding of serum 37 to linear peptides of protein X4 of SARS-CoV Urbani” value is 0.7, the “Binding of serum 37 to looped/cyclic peptides of protein X4 of SARS-CoV Urbani” value worked out at 0.7, the “Binding of serum 62 to linear peptides of protein X4 of SARS-CoV Urbani” value was 0.7 and the “Binding of serum 62 to looped/cyclic peptides of protein X4 of SARS-CoV Urbani” value worked out at 0.7. Also, in assay [1], the “Binding of serum London to linear peptides of protein X4 of SARS-CoV Urbani” value amounted to 0.6, the “Binding of serum London to looped/cyclic peptides of protein X4 of SARS-CoV Urbani” value came to 0.3, the “Binding of serum SARS-green to linear peptides of protein X4 of SARS-CoV Urbani” value was determined as 0.6 and the “Binding of serum SARS-green to looped/cyclic peptides of protein X4 of SARS-CoV Urbani” value is given as 0.3. In assay [1], the “Binding of serum SARS-yellow to linear peptides of protein X4 of SARS-CoV Urbani” value came to 0.6 and the “Binding of serum SARS-yellow to looped/cyclic peptides of protein X4 of SARS-CoV Urbani” value worked out at 0.7. For the same sequence, in assay [2], the “Binding of Control Serum Blood-Bank to Looped peptides” value stood at 0.6, the “Binding of Control serum Blood-bank to linear peptides” value was 0.6, the “Binding of Control serum LUMC to linear peptides” value was 0.7 and the “Binding of Control serum LUMC to looped peptides” value is 0.7. In assay [3], the “Rabbit serum linear peptides” value is listed as 0.4 and the “Rabbit serum looped peptides” value was 0.5.

For the sequence FLWLLWPVTLACFVL, in assay [1], the “Binding of serum 1a to linear peptides of protein M of SARS-CoV Urbani” value came to 0.6, the “Binding of serum 1a to looped/cyclic peptides of protein M of SARS-CoV Urbani” value is recorded as 0.6, the “Binding of serum 1b to linear peptides of protein M of SARS-CoV Urbani” value was determined as 0.4 and the “Binding of serum 1b to looped/cyclic peptides of protein M of SARS-CoV Urbani” value was determined as 0.5. Moreover, in assay [1], the “Binding of serum 2 to linear peptides of protein M of SARS-CoV Urbani” value was 0.5, the “Binding of serum 2 to looped/cyclic peptides of protein M of SARS-CoV Urbani” value came to 0.6, the “Binding of serum 6 to linear peptides of protein M of SARS-CoV Urbani” value is 0.3 and the “Binding of serum 6 to looped/cyclic peptides of protein M of SARS-CoV Urbani” value stood at 0.4. In assay [1], the “Binding of serum 37 to linear peptides of protein M of SARS-CoV Urbani” value was 0.6, the “Binding of serum 37 to looped/cyclic peptides of protein M of SARS-CoV Urbani” value is on record as 0.6, the “Binding of serum 62 to linear peptides of protein M of SARS-CoV Urbani” value was 0.7 and the “Binding of serum 62 to looped/cyclic peptides of protein M of SARS-CoV Urbani” value is 0.6. Also, in assay [1], the “Binding of serum London to linear peptides of protein M of SARS-CoV Urbani” value came out at 0.4, the “Binding of serum London to looped/cyclic peptides of protein M of SARS-CoV Urbani” value was determined as 0.2, the “Binding of serum SARS-green to linear peptides of protein M of SARS-CoV Urbani” value is 0.2 and the “Binding of serum SARS-green to looped/cyclic peptides of protein M of SARS-CoV Urbani” value turned out to be 0.2. In assay [1], the “Binding of serum SARS-yellow to linear peptides of protein M of SARS-CoV Urbani” value is on record as 0.1 and the “Binding of serum SARS-yellow to looped/cyclic peptides of protein M of SARS-CoV Urbani” value came to 0.7. Further, in assay [2], the “Binding of Control Serum Blood-Bank to Looped peptides of the protein M of SARS-CoV Urbani” value is recorded as 0.5, the “Binding of Control serum Blood-bank to linear peptides of the protein M of SARS-CoV Urbani” value is given as 0.4, the “Binding of Control serum LUMC to linear peptides of the protein M of SARS-CoV Urbani” value worked out at 0.2 and the “Binding of Control serum LUMC to looped peptides of the protein M of SARS-CoV Urbani” value came to 0.7. Besides, in assay [3], the “Rabbit serum linear peptides” value amounted to 0.3 and the “Rabbit serum looped peptides” value is reported as 0.4.

As to FMMSRRRLLACLCKH, in assay [1], the “Binding of serum 1a to linear peptides of protein X2” value was found to be 0.7, the “Binding of serum 1a to looped/cyclic peptides of protein X2 of SARS-CoV Urbani” value is 0.4, the “Binding of serum 1b to linear peptides of protein X2” value was 0.5 and the “Binding of serum 1b to looped/cyclic peptides of protein X2 of SARS-CoV Urbani” value was determined as 0.4. In assay [1], the “Binding of serum 2 to linear peptides of protein X2” value stood at 0.5, the “Binding of serum 2 to looped/cyclic peptides of protein X2 of SARS-CoV Urbani” value is reported as 0.3, the “Binding of serum 6 to linear peptides of protein X2” value came out at 0.7 and the “Binding of serum 6 to looped/cyclic peptides of protein X2 of SARS-CoV Urbani” value is reported as 0.5. In addition, in assay [1], the “Binding of serum 37 to linear peptides of protein X2” value was 0.6, the “Binding of serum 37 to looped/cyclic peptides of protein X2 of SARS-CoV Urbani” value was 0.3, the “Binding of serum 62 to linear peptides of protein X2” value turned out to be 0.6 and the “Binding of serum 62 to looped/cyclic peptides of protein X2 of SARS-CoV Urbani” value worked out at 0.4. Moreover, in assay [1], the “Binding of serum London to linear peptides of protein X2” value came to 0.7, the “Binding of serum London to looped/cyclic peptides of protein X2 of SARS-CoV Urbani” value stood at 1.2, the “Binding of serum SARS-green to linear peptides of protein X2” value turned out to be 0.5 and the “Binding of serum SARS-green to looped/cyclic peptides of protein X2 of SARS-CoV Urbani” value turned out to be 0.3. Besides, in assay [1], the “Binding of serum SARS-yellow to linear peptides of protein X2” value stood at 0.5 and the “Binding of serum SARS-yellow to looped/cyclic peptides of protein X2 of SARS-CoV Urbani” value is 0.5. Moreover, in assay [2], the “Binding of Control Serum Blood-Bank to Looped peptides” value came out at 0.6, the “Binding of Control serum Blood-bank to linear peptides” value worked out at 0.7, the “Binding of Control serum LUMC to linear peptides” value came out at 0.4 and the “Binding of Control serum LUMC to looped peptides” value worked out at 0.5. For the same sequence, in assay [3], the “Binding of a rabbit serum to linear peptides” value was 0.4 and the “Binding of a rabbit serum to looped peptides” value was determined as 0.6.

Turning to FRIAIWNLDVIISSI, in assay [1], the “Binding of serum 1a to linear peptides of protein X3 of SARS-CoV Urbani” value was found to be 0.8, the “Binding of serum 1a to looped/cyclic peptides of protein X3 of SARS-CoV Urbani” value turned out to be 0.7, the “Binding of serum 1b to linear peptides of protein X3 of SARS-CoV Urbani” value amounted to 0.5 and the “Binding of serum 1b to looped/cyclic peptides of protein X3 of SARS-CoV Urbani” value was found to be 0.5. Further, in assay [1], the “Binding of serum 2 to linear peptides of protein X3 of SARS-CoV Urbani” value came to 0.6, the “Binding of serum 2 to looped/cyclic peptides of protein X3 of SARS-CoV Urbani” value was determined as 0.7, the “Binding of serum 6 to linear peptides of protein X3 of SARS-CoV Urbani” value stood at 0.4 and the “Binding of serum 6 to looped/cyclic peptides of protein X3 of SARS-CoV Urbani” value was 0.3. In addition, in assay [1], the “Binding of serum 37 to linear peptides of protein X3 of SARS-CoV Urbani” value came to 0.5, the “Binding of serum 37 to looped/cyclic peptides of protein X3 of SARS-CoV Urbani” value is reported as 0.6, the “Binding of serum 62 to linear peptides of protein X3 of SARS-CoV Urbani” value is 0.7 and the “Binding of serum 62 to looped/cyclic peptides of protein X3 of SARS-CoV Urbani” value was 0.6. Further, in assay [1], the “Binding of serum London to linear peptides of protein X3 of SARS-CoV Urbani” value is listed as 0.7, the “Binding of serum London to looped/cyclic peptides of protein X3 of SARS-CoV Urbani” value is listed as 0.2, the “Binding of serum SARS-green to linear peptides of protein X3 of SARS-CoV Urbani” value is listed as 0.4 and the “Binding of serum SARS-green to looped/cyclic peptides of protein X3 of SARS-CoV Urbani” value was determined as 0.2. Besides, in assay [1], the “Binding of serum SARS-yellow to linear peptides of protein X3 of SARS-CoV Urbani” value is given as 0.7 and the “Binding of serum SARS-yellow to looped/cyclic peptides of protein X3 of SARS-CoV Urbani” value amounted to 0.8. In assay [2], the “Binding of Control Serum Blood-Bank to Looped peptides of the protein X3 of SARS-CoV Urbani” value was found to be 0.8, the “Binding of Control serum Blood-bank to linear peptides of the protein X3 of SARS-CoV Urbani” value was 0.7, the “Binding of Control serum LUMC to linear peptides of the protein X3 of SARS-CoV Urbani” value is listed as 0.6 and the “Binding of Control serum LUMC to looped peptides of the protein X3 of SARS-CoV Urbani” value is listed as 0.7. Moreover, in assay [3], the “Rabbit serum linear peptides” value stood at 0.3 and the “Rabbit serum looped peptides” value stood at 0.2.
